The values below are quoted from earlier work in US20220347144A1, “COMPOSITIONS AND METHODS FOR PREVENTING AND/OR REDUCING WEIGHT GAIN AND ASSOCIATED CONDITIONS” (University of Virginia Patent Foundation, priority 2019, published 2022).

Data set [1] deals with rats. The following applies: in rapeseed oil, Hulan et al., 1977; cited from earlier work.
In data set [2] the test system is rats. The following applies: triglyceride form, Kojima et al., 2010; cited from earlier work.

As to `CCCCCCCC/C=C\CCCCCCCCCCCC(=O)O` [erucic acid, (Z)-docos-13-enoic acid], in the data set with rats [1], the heart lesions entry is “implicated in causing heart lesions”.

For the compound `CCCCCCCCCCCCCCCCCCCCCC(=O)O` [behenic acid], the obesity result in the data set with rats [2] is reported as “prevented obesity”.
